Assay results taken from the NIST ThermoML archive (doi:10.1016/j.fluid.2010.04.010).
± gives the expanded uncertainty stated by the source.

Test: activity coefficient (dimensionless); of the first substance listed, at infinite dilution; xn = mol fraction of the nth substance listed
Settings: Liquid, Dilutor technique, x1 = 0

| SMILES | activity coefficient (303.15 K) | activity coefficient (313.15 K) | activity coefficient (323.15 K) | activity coefficient (333.15 K) |
| --- | --- | --- | --- | --- |
| c1ccccc1 [benzene] + CCCCCCn1cc[n+](C)c1.F[B-](F)(F)F | 1.385 ± 0.004 | 1.446 ± 0.004 | 1.562 ± 0.004 | 1.912 ± 0.004 |
| C1=CCCCC1 [cyclohexene] + CCCCCC[n+]1cccc(C)c1.O=S(=O)([N-]S(=O)(=O)C(F)(F)F)C(F)(F)F | 3.337 ± 0.004 | 3.205 ± 0.004 | 3.131 ± 0.004 | 3.018 ± 0.004 |
| C1=CCCCC1 [cyclohexene] + CCCCCCn1cc[n+](C)c1.F[B-](F)(F)F | 7.74 ± 0.004 | 7.632 ± 0.004 | 7.496 ± 0.004 | 7.052 ± 0.004 |
| c1ccccc1 [benzene] + CCCCn1cc[n+](C)c1.F[B-](F)(F)F | – | 2.341 ± 0.004 | 2.246 ± 0.004 | 2.218 ± 0.004 |
| c1ccccc1 [benzene] + CCCCCC[n+]1cccc(C)c1.O=S(=O)([N-]S(=O)(=O)C(F)(F)F)C(F)(F)F | 0.673 ± 0.004 | 0.683 ± 0.004 | 0.691 ± 0.004 | 0.701 ± 0.004 |
